Results as given in patent US20110091728A1, “Felbamate With Improved Bulk Density” (priority 2007, published 2011).

Legend:
[1] = Bulk density determination of felbamate (10 ml graduated cylinder, 50 taps); assay type: physicochemical
Source text: One important characteristic is tapped bulk density, or simply tapped (or tap) density, that is the maximum packing density of a powder (or blend of powders) achieved under the influence of well defined, externally applied forces (see, http://en.wikipedia.org/wiki/Bulk_density). The minimum packed volume thus achieved depends on a number of factors including particle size distribution, true density, particle shape and cohesiveness due to surface forces including moisture. Therefore, the tap density of a material can be used to predict both its flow properties and its compressibility. These two parameters are important in the overall tabletting process, which requires that loose powders be compacted into a durable solid form with the correct mechanical strength, porosity and dissolution characteristics. These parameters are also important in the formation of oral suspensions, which ideally contain particles of high bulk density, enabling even dispersion of the particles throughout the suspension after shaking and before consumption.
Felbamate (1.211 gm) purified by the above process (Example 3) was poured into a 10 ml graduated cylinder. The untapped volume of felbamate was 3.5 ml, resulting in an untapped bulk density of 0.35 gm/ml which was greater than the untapped bulk density of felbamate prepared by other methods (see below, Examples 9 and 10). The graduated cylinder was tapped until the felbamate (50 taps) no longer settled. The volume of felbamate after tapping was 2.2 ml, resulting in a tapped bulk density of 0.55 gm/ml.
Felbamate (0.972 gm) synthesized by the process disclosed in WO 94/06737 was poured into a 10 ml graduated cylinder. The untapped volume of felbamate was 5.1 ml, resulting in an untapped bulk density of 0.19 gm/ml. The graduated cylinder was tapped until the felbamate (50 taps) no longer settled. The volume of felbamate after tapping was 3.2 ml, resulting in a tapped bulk density of 0.30 gm/ml.
Felbamate (2 gm) synthesized by the process disclosed in U.S. Pat. No. 4,868,327 was purified by adding to 20 ml of methanol, heating the methanol to reflux to obtain a clear solution, cooling the solution to room temperature over three hours with stirring, and isolating the felbamate by filtration and drying under vacuum at 50° C. Felbamate (0.927 gm) purified by this process was poured into a 10 ml graduated cylinder. The untapped volume of felbamate was 6.5 ml, resulting in an untapped bulk density of 0.14 gm/ml. The graduated cylinder was tapped until the felbamate (50 taps) no longer settled. The volume of felbamate after tapping was 2.9 ml, resulting in a tapped bulk density of 0.32 gm/ml.

[2] = as above; assay type: physicochemical; remark: listed apart in the source

Question: For `NC(=O)OCC(COC(N)=O)c1ccccc1` [Felbamate, 2-phenyl-1,3-propanediol dicarbamate], which untapped bulk density ([1]; Table I, U.S. Pat. No. 4,868,327) is on record?
Answer: The untapped bulk density was 0.14 g/mL.

Question: What about the tapped bulk density ([1]; Table I, U.S. Pat. No. 4,868,327, 50 taps) of the same compound?
Answer: The tapped bulk density was 0.32 g/mL.

Question: And the untapped bulk density ([1]; Table I, WO 94/06737)?
Answer: Its untapped bulk density is 0.19 g/mL.

Question: And the tapped bulk density ([1]; Table I, WO 94/06737, 50 taps)?
Answer: The tapped bulk density was 0.3 g/mL.

Question: And the untapped bulk density ([1]; Table I, purification process as disclosed in Example 3)?
Answer: The untapped bulk density was 0.35 g/mL.

Question: What about the tapped bulk density ([1]; Table I, purification process as disclosed in Example 3, 50 taps) of the same compound?
Answer: The tapped bulk density was 0.55 g/mL.

Question: And the untapped bulk density ([1]; felbamate by process of U.S. Pat. No. 4,868,327, recrystallised from methanol (Example 10))?
Answer: The untapped bulk density was 0.14 gm/ml.

Question: And the tapped bulk density ([1]; felbamate by process of U.S. Pat. No. 4,868,327, recrystallised from methanol, 50 taps (Example 10))?
Answer: The tapped bulk density was 0.32 gm/ml.

Question: And the untapped bulk density ([1]; felbamate purified by process of Example 3, 1.211 gm in 10 ml cylinder (Example 8))?
Answer: Its untapped bulk density is 0.35 gm/ml.

Question: And the tapped bulk density ([1]; felbamate purified by process of Example 3, 50 taps (Example 8))?
Answer: Its tapped bulk density is 0.55 gm/ml.

Question: And the tapped bulk density ([1]; felbamate purified from methanol-water (Example 3))?
Answer: Its tapped bulk density is 0.5 gm/ml.

Question: And the tapped bulk density ([1]; felbamate purified from tetrahydrofuran-water (Example 5))?
Answer: The tapped bulk density was 0.4 gm/ml.

Question: What about the untapped bulk density ([1]; felbamate synthesized by process of WO 94/06737 (Example 9)) of the same compound?
Answer: The untapped bulk density was 0.19 gm/ml.

Question: And the tapped bulk density ([1]; felbamate synthesized by process of WO 94/06737, 50 taps (Example 9))?
Answer: Its tapped bulk density is 0.30 gm/ml.

Question: What about the tapped bulk density ([2]; felbamate purified from acetonitrile-water (Example 4)) of the same compound?
Answer: The tapped bulk density was 0.55 gm/ml.

Question: What about the tapped bulk density ([2]; felbamate purified from isopropanol-water (Example 6)) of the same compound?
Answer: The tapped bulk density was 0.54 gm/ml.

Question: And the tapped bulk density ([2]; felbamate purified from water (Example 7))?
Answer: Its tapped bulk density is 0.35 gm/ml.
